Counter-ions that a name gives are not always drawn.
What was measured:
[1] = target: T1, CDK1/CyclinB1 (Homo sapiens, UniProt P06493); assay: In vitro CDK1/CyclinB1 enzyme activity test (ADP-Glo); format: biochemical; details: 25 μM ATP, 25° C., 120 minutes
T1 construct: purchased Promega
Procedure: CDK1/CyclinB1 kinase detection kit was purchased from Promega. Nivo multi-label analyzer (PerkinElmer).
(§1) Using the kinase buffer in the kit to dilute the enzyme, substrate, adenosine triphosphate and inhibitor.
The compound to be tested was diluted 5-fold to the 8th concentration with a discharge gun, that is, diluted from 50 μM to 0.65 nM, with a DMSO concentration of 5%, and replicated. Add 1 μL of each inhibitor concentration gradient, 2 μL CDK1/CyclinB1 enzyme (12.5 ng), 2 μL mixture of substrate and ATP (25 μM adenosine triphosphate, 0.2 μg/μL substrate) into the microplate, and the final concentration gradient of the compound is 10 μM dilute to 0.13 nM. The reaction system was placed at 25° C. for 120 minutes. After the reaction, add 5 μL of ADP-Glo reagent to each well, and continue the reaction at 25° C. for 40 minutes. After the reaction, add 10 μL of kinase detection reagent to each well. After reacting at 25° C. for 30 minutes, use a multi-label analyzer to read chemiluminescence. The integration time is 0.5 seconds.
Table 1 provides the CDK1/CyclinB1 enzymatic inhibitory activity of the compounds of the present invention.

[2] = system: MV-4-11 cells; assay: In vitro cell activity test, MV-4-11 proliferation (CellTiter-Glo); format: cell-based; details: Homo sapiens, MV4-11, 72 h, 3 days incubation
Procedure: IMDM medium, fetal bovine serum, penicillin/streptomycin antibiotics were purchased from Promega (Madison, Wis.). The MV-4-11 cell line was purchased from the Cell Bank of the Chinese Academy of Sciences. Nivo multi-label analyzer (PerkinElmer).
Plant MV-4-11 cells in a white 96-well plate, 80 μL of cell suspension per well, which contains 6000 MV-4-11 cells. The cell plate was cultured overnight in a carbon dioxide incubator.
The compound to be tested was diluted 5-fold to the 8th concentration with a discharge gun, that is, diluted from 2 mM to 26 nM, and replicated. Add 78 μL of culture medium to the middle plate, and then transfer 2 μL of each well of the gradient dilution compound to the middle plate according to the corresponding position, and transfer 20 μL of each well to the cell plate after mixing. The final concentration of the compound is 10 μM to 0.13 nM. The cell plate was placed in a carbon dioxide incubator for 3 days.
Add 25 μL of Promega CellTiter-Glo reagent per well to the cell plate and incubate at room temperature for 10 minutes to stabilize the luminescence signal. Use PerkinElmer Nivo multi-label analyzer to read.

[3] = target: T2, CDK9/CyclinT1 (Homo sapiens, UniProt P50750); assay: In vitro CDK9/CyclinT1 enzyme activity test (ADP-Glo); format: biochemical; details: 100 μM ATP, 25° C., 120 minutes
T2 construct: purchased Carna
Procedure: CDK9/CyclinT1 kinase was purchased from Carna, ADP-Glo detection kit was purchased from Promega, and PKDTide substrate and kinase reaction buffer were purchased from Signalchem. Nivo multi-label analyzer (PerkinElmer).
The kinase buffer in the kit was used to dilute the enzyme, substrate, adenosine triphosphate and inhibitors.
The compound to be tested was diluted by 5 times for 8 concentrations with a discharge gun, ie., dilution from 50 μM to 0.65 nM, with a DMSO concentration of 5%, and replicated. 1 μL of each concentration gradient of the inhibitor, 2 μL CDK9/CyclinT1 enzyme (4 ng), 2 μL of a mixture of substrate and ATP (100 μM adenosine triphosphate, 0.2 μg/μL substrate) was added to the microplate, and the final concentration gradient of the compound was 10 μM dilution to 0.13 nM. The reaction system was placed at 25° C. for 120 minutes. After the reaction, 5 μL of ADP-Glo reagent was added to each well, and the reaction was allowed to continue at 25° C. for 40 minutes. After the reaction, 10 μL of kinase detection reagent was added to each well. After reacting at 25° C. for 30 minutes, a multi-label analyzer was used to read chemiluminescence. The integration time was 0.5 seconds.
Table 1 provides the enzymatic inhibitory activity of the compounds of the present invention on CDK9/CyclinT1.

[4] = target: T3, CDK2/CyclinE1 (Homo sapiens, UniProt P24941); assay: In vitro CDK2/CyclinE1 enzyme activity test (ADP-Glo); format: biochemical; details: 150 μM ATP, 25° C., 60 minutes
T3 construct: purchased Promega
Procedure: CDK2/CyclinE1 kinase detection kit was purchased from Promega. Nivo multi-label analyzer (PerkinElmer).
as §1
The compound to be tested was diluted 5-fold to the 8th concentration with a discharge gun, that is, diluted from 50 μM to 0.65 nM, with a DMSO concentration of 5%, and replicated. Add 1 μL of each inhibitor concentration gradient, 2 μL CDK2/CyclinE1 enzyme (2 ng), 2 μL mixture of substrate and ATP (150 μM adenosine triphosphate, 0.1 μg/μL substrate) to the microplate, and the final concentration gradient of the compound is 10 μM dilution to 0.13 nM. The reaction system was placed at 25° C. for 60 minutes. After the reaction, add 5 μL of ADP-Glo reagent to each well, and continue the reaction at 25° C. for 40 minutes. After the reaction, add 10 μL of kinase detection reagent to each well. After reacting at 25° C. for 30 minutes, use a multi-label analyzer to read chemiluminescence. The integration time is 0.5 seconds.
Table 1 provides the CDK2/CyclinE1 enzymatic inhibitory activity of the compounds of the present invention.

[5] = background; cited from earlier work
[6] = system: MV4-11 acute myeloid leukemia xenograft (CDX); assay: In vivo drug efficacy study (1), MV4-11 CDX model; details: 15 mg/kg injected weekly; for Tumor Volume Day 0: Day 0 (start of administration)
Procedure: In vivo drug efficacy experiments were performed on human-derived tumor cell line-based xenograft (CDX) BALB/c nude mice derived from patients with MV4-11 acute myeloid leukemia subcutaneously implanted.
(§2) Female 6- to 8-week old BALB/c nude mice which weighed about 18-22 g were kept in separate ventilated cages (3 mice per cage) in a special pathogen-free environment. All the cages, matts and water were disinfected before use. All the animals had free access to standard certified commercial laboratory diet. A total of 30 mice were purchased from Shanghai Lingchang biological science and technology Co., LTD. for study. Each mouse was subcutaneously implanted with tumor cells in the right next abdomen (10×10^6 in 0.2 mL of phosphate buffer) for tumor growth. The administration started when the average tumor volume reached approximately 110 cubic millimeters. The test compound was injected weekly at a dose of 15 mg/kg. The tumor volumes were measured with a two-dimensional caliper twice a week, and the volumes were expressed in cubic millimeters and calculated by the formula: V=0.5a×b^2, where a and b were the major diameter and the minor diameter of the tumor, respectively. Antitumor efficacy was determined by dividing an average increase of the tumor volumes of the animals treated with the compounds by an average increase of the tumor volumes of the untreated animals.

[7] = clinical research, background; cited from earlier work
[8] = system: MV4-1 acute myeloid leukemia xenograft (CDX); assay: In vivo drug efficacy study (2), MV4-11 CDX model; details: 10 mg/kg injected weekly; for Tumor Volume Day 0: Day 0 (start of administration)
Procedure: In vivo drug efficacy experiments were performed on human-derived tumor cell line-based xenograft (CDX) BALB/c nude mice derived from patients with MV4-1 acute myeloid leukemia subcutaneously implanted.
as §2, with “36” for “30”, “121” for “110”, “10” for “15”

T2 sequence (P50750 whole entry): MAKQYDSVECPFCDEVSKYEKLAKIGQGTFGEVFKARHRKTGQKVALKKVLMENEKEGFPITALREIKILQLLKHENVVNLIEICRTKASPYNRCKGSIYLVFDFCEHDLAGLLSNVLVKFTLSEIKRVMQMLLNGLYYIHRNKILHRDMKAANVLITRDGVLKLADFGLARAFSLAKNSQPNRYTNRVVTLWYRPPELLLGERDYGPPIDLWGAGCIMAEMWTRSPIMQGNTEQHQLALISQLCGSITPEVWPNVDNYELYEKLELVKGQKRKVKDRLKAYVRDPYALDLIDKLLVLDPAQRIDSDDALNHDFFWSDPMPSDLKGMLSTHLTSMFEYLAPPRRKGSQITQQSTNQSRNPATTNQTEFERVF
T2 sequence (O60563 whole entry partner): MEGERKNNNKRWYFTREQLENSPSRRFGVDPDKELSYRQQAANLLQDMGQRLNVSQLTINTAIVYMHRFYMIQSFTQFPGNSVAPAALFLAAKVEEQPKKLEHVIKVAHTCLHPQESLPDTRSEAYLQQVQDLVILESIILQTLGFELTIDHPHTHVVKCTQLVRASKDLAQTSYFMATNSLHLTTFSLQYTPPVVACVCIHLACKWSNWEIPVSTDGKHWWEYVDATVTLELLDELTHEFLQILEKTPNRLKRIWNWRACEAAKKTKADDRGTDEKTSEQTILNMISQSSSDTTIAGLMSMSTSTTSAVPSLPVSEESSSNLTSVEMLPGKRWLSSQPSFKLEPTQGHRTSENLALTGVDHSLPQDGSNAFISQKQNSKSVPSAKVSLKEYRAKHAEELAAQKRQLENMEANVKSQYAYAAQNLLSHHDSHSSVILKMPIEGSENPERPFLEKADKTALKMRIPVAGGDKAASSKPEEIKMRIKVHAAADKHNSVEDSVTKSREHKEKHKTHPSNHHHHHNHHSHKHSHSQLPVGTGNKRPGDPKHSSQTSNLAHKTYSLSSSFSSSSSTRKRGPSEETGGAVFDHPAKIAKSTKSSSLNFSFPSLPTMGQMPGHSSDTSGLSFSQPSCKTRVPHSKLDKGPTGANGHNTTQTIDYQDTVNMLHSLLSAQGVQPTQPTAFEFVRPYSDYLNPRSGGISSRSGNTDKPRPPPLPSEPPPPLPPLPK
T1 sequence (P06493 whole entry): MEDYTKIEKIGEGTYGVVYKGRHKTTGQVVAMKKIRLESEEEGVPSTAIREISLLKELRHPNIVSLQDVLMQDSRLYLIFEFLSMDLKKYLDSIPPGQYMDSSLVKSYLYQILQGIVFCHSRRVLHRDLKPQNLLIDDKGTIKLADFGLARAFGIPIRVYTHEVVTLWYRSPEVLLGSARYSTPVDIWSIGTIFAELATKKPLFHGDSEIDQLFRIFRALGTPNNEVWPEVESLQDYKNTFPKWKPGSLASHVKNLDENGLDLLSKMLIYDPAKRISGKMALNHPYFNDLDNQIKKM
T1 sequence (P14635 whole entry partner): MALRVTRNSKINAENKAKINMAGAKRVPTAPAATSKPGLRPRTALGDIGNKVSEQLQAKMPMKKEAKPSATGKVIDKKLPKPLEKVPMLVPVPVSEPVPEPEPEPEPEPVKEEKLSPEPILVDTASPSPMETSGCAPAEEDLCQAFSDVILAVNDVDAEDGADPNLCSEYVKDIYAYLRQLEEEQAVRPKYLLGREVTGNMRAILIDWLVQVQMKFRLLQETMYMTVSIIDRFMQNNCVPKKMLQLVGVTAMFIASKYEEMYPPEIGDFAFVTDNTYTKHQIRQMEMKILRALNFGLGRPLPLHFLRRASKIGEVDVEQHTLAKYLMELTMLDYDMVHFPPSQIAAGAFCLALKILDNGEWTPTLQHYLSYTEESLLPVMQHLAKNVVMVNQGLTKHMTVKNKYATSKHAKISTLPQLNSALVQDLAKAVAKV

IC50 [1]	IC50 [2]	IC50 [3]	IC50 [4]	SMILES	further results
756 nM	94.8 nM	10.3 nM	334 nM	CC(C)N1CCC(c2cc3c(-c4cnn(CC5CC5)c4)c(Cl)cnc3[nH]2)CC1 [4 (hydrochloride)]	
1550 nM	63.8 nM	10.6 nM	235 nM	COCCN1CCC(c2cc3c(-c4cnn(CC5CC5)c4)c(Cl)cnc3[nH]2)CC1 [5 (hydrochloride)]	
255 nM	35.7 nM	7.1 nM	79.4 nM	CN1CCC(c2cc3c(-c4cnn(CC5CC5)c4)c(Cl)cnc3[nH]2)CC1 [Compound 2 (formate)]	
879 nM	252 nM	18 nM	933 nM	c1cc(-c2cnn(CC3CC3)c2)c2cc(C3CCNCC3)[nH]c2n1 [Compound 3 (formate)]	
416 nM	7.4 nM	14.1 nM	105 nM	CCN1CCC(c2cc3c(-c4cnn(CC5CC5)c4)c(Cl)cnc3[nH]2)CC1 [Compound 3 (hydrochloride)]	
1030 nM	52 nM	9.6 nM	394 nM	COCC(C)N1CCC(c2cc3c(-c4cnn(CC5CC5)c4)c(Cl)cnc3[nH]2)CC1 (stereo not shown) [Compound 6 (formate)]	
366 nM	86.6 nM	5.2 nM	113 nM	Clc1cnc2[nH]c(C3CCNCC3)c(Cl)c2c1-c1cnn(CC2CC2)c1 [Compound 7]	
178 nM	54.6 nM	7.1 nM	75 nM	Clc1cnc2[nH]c(C3CCNCC3)cc2c1-c1cnn(CC2CCCC2)c1 [Compound 8 (formate)]	
133 nM	67.3 nM	6.3 nM	105 nM	Clc1cnc2[nH]c(C3CCNCC3)cc2c1-c1cnn(Cc2ccccc2)c1 [Compound 9 (formate)]	
87.9 nM	79.1 nM	6.9 nM	549 nM	Clc1ccccc1Cn1cc(-c2c(Cl)cnc3[nH]c(C4CCNCC4)cc23)cn1 [Compound 10 (formate)]	
120 nM	64.8 nM	6.4 nM	214 nM	Clc1cccc(Cn2cc(-c3c(Cl)cnc4[nH]c(C5CCNCC5)cc34)cn2)c1 [Compound 11 (formate)]	
260 nM	286 nM	7.7 nM	549 nM	Clc1ccc(Cn2cc(-c3c(Cl)cnc4[nH]c(C5CCNCC5)cc34)cn2)cc1 [Compound 12]	
	464 nM	38.4 nM	1360 nM	Clc1cnc2[nH]c(C3CCNCC3)nc2c1-c1cnn(CC2CC2)c1 [Compound 14]	

SMILES	IC50 [1]	IC50 [2]	IC50 [3]	IC50 [4]	further results
CC(=O)N[C@@H]1CCC[C@H](C(=O)Nc2cc(-c3cnn4c3CC(C)(C)C4)c(Cl)cn2)C1 [AZD4573]	2 nM			1 nM	metabolism (in words) [5]: not good; Animals' Drug Tolerance [6]: Well; Tumor Volume Day 0 [6]: 110 mm^3; Tumor Volume Day 7 [6]: 173 mm^3; Tumor Volume Day 17 [6]: 262 mm^3; Tumor Volume Day 28 [6]: 975 mm^3
COc1cc(F)ccc1-c1cc(Nc2cc(CS(C)(=N)=O)ccn2)ncc1F (stereo not shown) [BAY1251152]	300 nM	28.2 nM		193 nM	clinically most important grade 3/4 and dose-limiting adverse side effect [7]: neutropenia; Animals' Drug Tolerance [6]: 5/6 mouse; Tumor Volume Day 0 [6]: 110 mm^3; Tumor Volume Day 7 [6]: 107 mm^3; Tumor Volume Day 17 [6]: 83 mm^3; Tumor Volume Day 28 [6]: 426 mm^3
Clc1cnc2[nH]c(C3CCNCC3)cc2c1-c1cnn(CC2CC2)c1 [Compound 1 (hydrochloride)]	88.7 nM	14.7 nM	7.7 nM	112 nM	Animals' Drug Tolerance [8]: Well; Tumor Volume Day 0 [8]: 121 mm^3; Tumor Volume Day 7 [8]: 121 mm^3; Tumor Volume Day 17 [8]: 151 mm^3; Tumor Volume Day 28 [8]: 419 mm^3; Animals' Drug Tolerance [6]: Well; Tumor Volume Day 0 [6]: 110 mm^3; Tumor Volume Day 7 [6]: 109 mm^3; Tumor Volume Day 17 [6]: 42 mm^3; Tumor Volume Day 28 [6]: 107 mm^3
Cn1cc(-c2c(Cl)cnc3[nH]c(C4CCNCC4)cc23)cn1 [Compound 15 (hydrochloride)]	824 nM	34.5 nM	4.3 nM	685 nM	Animals' Drug Tolerance [8]: Well; Tumor Volume Day 0 [8]: 121 mm^3; Tumor Volume Day 7 [8]: 87 mm^3; Tumor Volume Day 17 [8]: 74 mm^3; Tumor Volume Day 28 [8]: 332 mm^3

Source: patent US20220267321A1, “AZAINDOLE PYRAZOLE COMPOUNDS AS CDK9 INHIBITORS” (MEDSHINE DISCOVERY INC., priority 2019, published 2022)
